Source: PubChem BioAssay (NCI)
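Interpolation was linear, between the two tested concentrations surrounding the appropriate level; five concentrations were tested over 48 hours in 96-well plates. GI50 marks 50% less growth. TGI denotes the concentration required for complete inhibition of growth.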 *1 amine or outer side, *2 acyl side, *3 side chain or, on linkers, in order; H or OH if unused. Where a SMILES comes first, the peptide text is derived from it. [ ]: non-standard residue; d: D form. X33 = C=CCC(O[*:1])C(=O)[*:2]; NMeV = CN[CH](C(=O)O)C(C)C; NMeA = CN[CH](C)C(=O)O; βAla = NCCC(=O)O

Tests used:
Assay in all cases: NCI anticancer screen, dose series, 48 h
HCC-2998 colon = system: HCC-2998 colon
K-562 leukemia = system: K-562 leukemia
MOLT-4 leukemia = system: MOLT-4 leukemia
OVCAR-5 ovarian = system: OVCAR-5 ovarian
RPMI-8226 leukemia = system: RPMI-8226 leukemia
SNB-19 CNS = system: SNB-19 CNS
SNB-75 CNS = system: SNB-75 CNS
UACC-257 melanoma = system: UACC-257 melanoma
CAKI-1 renal = system: CAKI-1 renal
M14 melanoma = system: M14 melanoma
SN12C renal = system: SN12C renal

| SMILES | TGI (HCC-2998 colon) [µM] | TGI (K-562 leukemia) [µM] | TGI (MOLT-4 leukemia) [µM] | TGI (OVCAR-5 ovarian) [µM] | TGI (RPMI-8226 leukemia) [µM] | TGI (SNB-19 CNS) [µM] | TGI (SNB-75 CNS) [µM] | TGI (UACC-257 melanoma) [µM] | TGI (CAKI-1 renal) [µM] | TGI (M14 melanoma) [µM] | TGI (SN12C renal) [µM] | GI50 (HCC-2998 colon) [µM] | GI50 (K-562 leukemia) [µM] | GI50 (MOLT-4 leukemia) [µM] | GI50 (OVCAR-5 ovarian) [µM] | GI50 (RPMI-8226 leukemia) [µM] | GI50 (SN12C renal) [µM] | GI50 (SNB-19 CNS) [µM] | GI50 (SNB-75 CNS) [µM] | GI50 (UACC-257 melanoma) [µM] |
| --- | --- | --- | --- | --- | --- | --- | --- | --- | --- | --- | --- | --- | --- | --- | --- | --- | --- | --- | --- | --- |
| CC(c1ccccc1)/[N+]([O-])=C/c1ccccc1 (stereo not drawn) | > 100 | > 100 | > 100 | > 100 | > 100 | > 100 | > 100 | > 100 | – | – | – | – | – | – | – | – | – | – | – | – |
| Nc1nc(N)c2[nH]cnc2n1 (tested in a mixture with another compound) | – | > 100 | > 100 | > 100 | > 100 | > 100 | > 100 | 55.2 | > 100 | 36.2 | > 100 | – | – | – | – | – | – | – | – | – |
| C=CCC1OC(=O)CCNC(=O)C(C)N(C)C(=O)C(C(C)C)N(C)C(=O)C(C(C)CC)NC(=O)C2CCCN2C1=O (stereo not drawn) (cyclo([X33]PI[NMeV][NMeA][βAla]); configuration not given here) | > 100 | – | > 100 | > 100 | 7.84 | > 100 | > 100 | 71.6 | > 100 | > 100 | > 100 | – | – | – | – | – | – | – | – | – |
| Cc1ccc2c(C)c3ccc4ccccc4c3c[n+]2c1 | 28.6 | > 100 | 45.9 | > 100 | 64.8 | 40.8 | 25.9 | 33.7 | > 100 | 33.9 | 24 | – | – | – | – | – | – | – | – | – |
| C/C(=N\NC(=S)Nc1ccc(C)cc1)c1nc2ncccc2[nH]1 | 20.2 | 24.2 | 17.6 | 18.6 | > 100 | > 100 | 22.5 | 9.48 | > 100 | – | 30.8 | – | – | – | – | – | – | – | – | – |
| CC1OC1C(=O)C1(O)C(C)C(O)C23OC2(C(O)c2c(O)cccc2C3=O)C1O (stereo not drawn) | 0.401 | 0.776 | 0.495 | 3.08 | 0.73 | 0.742 | 0.747 | 0.714 | 0.253 | – | 0.343 | – | – | – | – | – | – | – | – | – |
| CCSc1nc(=[N+]2CCCC2)ss1 | > 100 | 24.1 | 30 | > 100 | 22.8 | > 100 | > 96.6 | > 100 | > 100 | > 100 | > 100 | – | – | – | – | – | – | – | – | – |
| COc1ccc(-c2c3c(nc4nc(SC)nc(SC)c24)CCCC3)cc1OC | > 100 | > 100 | > 100 | > 100 | > 100 | > 100 | > 100 | > 100 | > 100 | > 100 | > 100 | – | – | – | – | – | – | – | – | – |
| C[C@]12CCc3sc(Nc4ccc(O)cc4)nc3C1=CC[C@@H]1[C@@H]2CC[C@]2(C)C(=O)CC[C@@H]12 | > 100 | > 100 | > 100 | > 100 | 7.07 | > 100 | > 100 | 4.62 | – | – | > 100 | 4.11 | 2.96 | 2.38 | 3.91 | 2.35 | 2.91 | 10.9 | 2.76 | 1.86 |
| CN1CCN(c2cc(-c3cc4ccccc4o3)oc(=O)c2C#N)CC1 | > 100 | > 100 | > 100 | > 100 | > 100 | > 100 | > 100 | > 100 | > 100 | > 100 | > 100 | – | – | – | – | – | – | – | – | – |
| CCOP(=O)(CN=C(c1ccccc1)c1ccccc1)OCC | > 100 | > 100 | > 100 | > 100 | > 100 | > 100 | > 100 | > 100 | > 100 | > 100 | > 100 | – | – | – | – | – | – | – | – | – |
| O=C(NN1C(=O)CSC1c1ccc(C(F)(F)F)cc1)c1ccncc1 (stereo not drawn) | > 100 | > 100 | > 100 | > 100 | > 100 | > 100 | > 100 | > 100 | > 100 | – | > 100 | – | – | – | – | – | – | – | – | – |
| NC(=S)N/N=C1\c2ccccc2CCC1CCC1(O)CCc2ccccc2C1=O (stereo not drawn) | – | – | 88.2 | 74.2 | 70.4 | > 100 | 45 | 33.3 | > 100 | 38 | 39.8 | – | – | – | – | – | – | – | – | – |
| O=C1OCC/C1=C/c1ccc(N=Nc2c(O)ccc3ccccc23)cc1 | 39.7 | > 100 | 51.1 | 42.2 | 53.8 | > 100 | 49.2 | 40.3 | 34.8 | 66.3 | 45.1 | – | – | – | – | – | – | – | – | – |
| Cc1ccc(Nc2nc(NS(=O)(=O)c3cc(C(=O)Nc4ccc(Cl)cc4)c(Cl)cc3S)n[nH]2)cc1 | – | > 100 | > 100 | > 100 | > 100 | > 100 | > 100 | > 100 | > 100 | > 100 | > 100 | – | – | – | – | – | – | – | – | – |
| CCc1nnc(-c2nsc3ccccc23)s1 | > 100 | > 100 | > 100 | > 100 | > 100 | > 100 | > 100 | > 100 | – | > 100 | > 100 | – | – | – | – | – | – | – | – | – |
| CC(CCC(=O)O)C1CCC2C3C(O)CC4CC(O)CCC4(C)C3CC(O)C12C (stereo not drawn) | > 100 | > 100 | > 100 | > 100 | > 100 | > 100 | > 100 | > 100 | > 100 | > 100 | > 100 | – | – | – | – | – | – | – | – | – |
| COC1=CC(=O)c2c(O)c3c(c(O)c2C1=O)C=C(C)OC3O (stereo not drawn) | 3.74 | 5.07 | 5.04 | 5.73 | 5.83 | 7.12 | 3.97 | 0.754 | 14.5 | 0.845 | 2.08 | – | – | – | – | – | – | – | – | – |
